In patent publication US6432426B1, “Non-staining topical iodine composition and method” (Symbollon Corporation, priority 1998, dated 2002):
Values joined by “and” are separate entries in the source; they are usually repeats but may differ in a detail not shown here. Identical values can stand only once.

Key:
Human Skin = assay: Coloration of human skin by a 30 second exposure (vial contact on forearm); hue by Pantone chips, intensity against Brown No. 3 dye; format: in vivo; parameters: key to Coloration of human skin: N = no visible staining; L = light staining barely noticeable; S = a clearly visible coloration; conditions: for Coloration of human skin: 30 second exposure, lines = Subjects 1-3
From the text: 1. […] Elemental iodine was weighed on an analytical balance and dissolved in one liter of water that had been acidified with 2 drops of 0.1N hydrochloric acid. The concentration of molecular iodine in the water was confirmed by potentiometric analysis (Gottardi, W., 1983. Fresenius Z. Anal. Chem., Vol. 314, pages 582-585). Samples were also titrated with thiosulfate to determine that at least 95% of the theoretical yield of titratable iodine was in the form of molecular iodine as opposed to triiodide. The concentration of molecular iodine was varied from 25 ppm to 330 ppm.
One dram vials (Kimble catalog #60931) were used to deliver 4 mL of the room temperature iodine solutions samples. The vials were placed on the forearm of a subject and then the forearm was inverted to initiate contact of the sample with the iodine solution. The contact area was a circle with a diameter of 1.3 cm. The samples were held on the arm for 30 seconds at room temperature. Three different subjects were used for this experiment. Immediately after the 30 second contact time the arms of the subjects were examined for stains; 10 minutes after the end of the contact time all subjects arms were examined for stains again..
For the purposes of this application, two different parameters were used to characterize the color and intensity of the term stain. The hue of the color imparted to skin was characterized by using the Pantone Color Matching System (Pantone Color Specifier, Pantone Inc., Carlstadt, N.J.) which allows comparison with 1,012 defined colors on two types of paper. Stains from triiodide were matched to the Pantone color chip No. 152C. Short-lived coloration from molecular iodine were matched to the Pantone color chip 1375C.
The intensity of any coloration on skin was characterized by applying an aqueous solution of known concentrations of a food dye, Brown No. 3 (Crompton & Knowles, Mahwah, N.J. —Code DP935159), for 10 seconds using the method described above for application of iodine. Brown No. 3 was applied to the skin at concentrations that ranged from 500 ppm to 30 ppm and the intensity of the color from Brown No. 3 was compared to the intensity of coloration from iodine compositions. For instance, the intensity of color 10 minutes after a 30 second contact with a 600 ppm aqueous triiodide solution was equivalent to the color from a 10 second exposure to a 250 ppm Brown No. 3 solution. In contrast, the intensity of color 10 minutes after a 30 second contact with a 300 ppm aqueous molecular iodine solution was equivalent to the color from a ten second exposure to a 30 ppm Brown No. 3 solution which is barely discernible.

Candida albicans = assay: Residual biocidal effect of skin associated iodine, repeated experiment; format: in vivo; conditions: saturated molecular iodine solution (320 ppm)
Salmonella typhimurium = assay: as above; format: in vivo; conditions: saturated molecular iodine solution (320 ppm)
[1] = Concentration of molecular iodine in a saturated solution; format: physicochemical; conditions: pH of 4.5
Method: 5. […] A saturated solution of molecular iodine was prepared at a pH of 4.5. The concentration of molecular iodine was measured to be 320 ppm and the concentration of triiodide was determined to be less than 5 ppm. A 1.0 dram vial containing four mL of the saturated iodine solution was contacted with the forearm of a subject and then the forearm was inverted to initiate contact of the sample with the molecular iodine solution. The samples were contacted with the arm for 30 seconds. After contact the treated arm was flushed with water for 15 seconds and dried.

Pseudomonas aeruginosa = assay: Residual biocidal effect of skin associated iodine, repeated experiment; format: in vivo; conditions: saturated molecular iodine solution (320 ppm)
[2] = Sub dermal penetration of iodine measured by iodine analysis of 24 hour urine; format: in vivo, human; conditions: 300 ppm molecular iodine applied to skin 4 times over six hours; lines = Subjects 1-3 (prior: 95, 114, 106); listed as I2
Method: 11. The 300 ppm samples of molecular iodine described in Example 1 was used to confirm that molecular iodine will penetrate into skin and permeate into the skin to provide sub dermal tissue penetration.
Application of the iodine solution onto skin was performed as described in Example 1 above with two exceptions: (1) the contacted area was flushed with water for 15 seconds immediately after following contact between the iodine solution and skin and (2) the sample was applied to the skin once every 2 hours over a six hour time period (4 applications).
Twenty-four hour urine samples were collected on three subjects for the day immediately prior to the experiment. […] The urine samples were analyzed to determine their total iodine content. Urinary concentrations of total iodide were measured by utilizing the reduction-oxidation reaction between ceric ioni and arsenite ion catalyzed by iodide. […] Arsenious acid was added, the samples were transferred to an autoanalyzer, ceric ammonium sulfate was added “on line” and the optical transmission was measured spectrophometrically at 420 nm. […] If the yellow color fades to colorless (clear) within 1.5 minutes, the iodine content is too high to be measured. […] The % transmission was recorded and the concentration of iodine in each sample was determined by comparison to the standards.

SMILES: II [Molecular Iodine, molecular iodine]
- Coloration of human skin (Human Skin; 25 ppm molecular iodine, 0 min post contact): N
- Coloration of human skin (Human Skin; 25 ppm molecular iodine, 10 min post contact): N
- Coloration of human skin (Human Skin; 50 ppm molecular iodine, 0 min post contact): N
- Coloration of human skin (Human Skin; 50 ppm molecular iodine, 10 min post contact): N
- Coloration of human skin (Human Skin; 100 ppm molecular iodine, 0 min post contact): N and L
- Coloration of human skin (Human Skin; 100 ppm molecular iodine, 10 min post contact): N
- Coloration of human skin (Human Skin; 200 ppm molecular iodine, 0 min post contact): S
- Coloration of human skin (Human Skin; 200 ppm molecular iodine, 10 min post contact): N
- Coloration of human skin (Human Skin; 300 ppm molecular iodine, 0 min post contact): S
- Coloration of human skin (Human Skin; 300 ppm molecular iodine, 10 min post contact): N and L
- Intensity of color on skin, equivalent Brown No. 3 solution (ten second exposure) (Human Skin; 10 minutes after a 30 second contact with a 300 ppm aqueous molecular iodine solution, barely discernible): 30 ppm
- Hue of the color imparted to skin, matched Pantone color chip (Human Skin; Pantone Color Matching System): 1375C
- Residual biocidal efficacy on skin (Candida albicans): Efficacy was also demonstrated
- Residual biocidal efficacy on skin (Salmonella typhimurium): Efficacy was also demonstrated
- Concentration of molecular iodine in saturated solution [1]: 320 ppm
- Log reduction (smallest observed) (Pseudomonas aeruginosa): 0.5 logs
- 24 Hour Urine iodine, Post I2 Application [2]: 647 ug iodine and 846 ug iodine and 741 ug iodine
